For the series, the target named is T1, hERG (Kv11.1) potassium channel (Homo sapiens, UniProt Q12809).
T1 construct: expressed in transfected cells
Briefly: hERG potassium channel activity, thallium flux in HEK293T cells. The series is classed as cell-based. The procedure: (A) The inhibition of mouse pendrin (mPDS)-mediated Cl^−/I^− exchange activity by F56 was measured in CHO-K1 cells (mean±S.E., n=5). The indicated concentration of F56 was pretreated for 10 minutes. (B) Summary of dose-response for inhibition of the human pendrin (hPDS)-mediated (closed circle, FIG. (a), C) and mPDS-mediated (open circle) Cl^−/I^− exchange activity. (C-F) Representative traces of intracellular pH in CHO-K1 cells expressing SLC26A3, SLC26A6, SLC26A7 and SLC26A9 were shown. The application of Cl^− free solution induced intracellular alkalization by Cl^−/HCO3^− exchange. The indicated concentration of F56 was pretreated for 10 minutes. (G) the effect of F56 (100 μM) on the CFTR chloride channel activity was measured in FRT cells expressing human CFTR. […] (H) The effect of F56 (100 μM) on the AN01 chloride channel activity was measured in FRT cells expressing human AN01. […] (I) The effect of F56 on the hERG (Kv11.1) potassium channel activity was measured in HEK293T cells expressing human Kv11.1 (mean±S.E., n=4). […] (J) The effect of F56 on the 5-HT2A channel activity was measured in FRT cells expressing human 5-HT2A (mean±S.E., n=4). […]
(A) The effect of F10 (30 μM) on the CFTR channel was measured in FRT cells expressing human CFTR and mutant YFP. […] (B) The effect of F10 (30 μM) on the AN01 channel activity was measured in FRT cells expressing human and mutant YFP. […]

T1 sequence (Q12809 whole entry): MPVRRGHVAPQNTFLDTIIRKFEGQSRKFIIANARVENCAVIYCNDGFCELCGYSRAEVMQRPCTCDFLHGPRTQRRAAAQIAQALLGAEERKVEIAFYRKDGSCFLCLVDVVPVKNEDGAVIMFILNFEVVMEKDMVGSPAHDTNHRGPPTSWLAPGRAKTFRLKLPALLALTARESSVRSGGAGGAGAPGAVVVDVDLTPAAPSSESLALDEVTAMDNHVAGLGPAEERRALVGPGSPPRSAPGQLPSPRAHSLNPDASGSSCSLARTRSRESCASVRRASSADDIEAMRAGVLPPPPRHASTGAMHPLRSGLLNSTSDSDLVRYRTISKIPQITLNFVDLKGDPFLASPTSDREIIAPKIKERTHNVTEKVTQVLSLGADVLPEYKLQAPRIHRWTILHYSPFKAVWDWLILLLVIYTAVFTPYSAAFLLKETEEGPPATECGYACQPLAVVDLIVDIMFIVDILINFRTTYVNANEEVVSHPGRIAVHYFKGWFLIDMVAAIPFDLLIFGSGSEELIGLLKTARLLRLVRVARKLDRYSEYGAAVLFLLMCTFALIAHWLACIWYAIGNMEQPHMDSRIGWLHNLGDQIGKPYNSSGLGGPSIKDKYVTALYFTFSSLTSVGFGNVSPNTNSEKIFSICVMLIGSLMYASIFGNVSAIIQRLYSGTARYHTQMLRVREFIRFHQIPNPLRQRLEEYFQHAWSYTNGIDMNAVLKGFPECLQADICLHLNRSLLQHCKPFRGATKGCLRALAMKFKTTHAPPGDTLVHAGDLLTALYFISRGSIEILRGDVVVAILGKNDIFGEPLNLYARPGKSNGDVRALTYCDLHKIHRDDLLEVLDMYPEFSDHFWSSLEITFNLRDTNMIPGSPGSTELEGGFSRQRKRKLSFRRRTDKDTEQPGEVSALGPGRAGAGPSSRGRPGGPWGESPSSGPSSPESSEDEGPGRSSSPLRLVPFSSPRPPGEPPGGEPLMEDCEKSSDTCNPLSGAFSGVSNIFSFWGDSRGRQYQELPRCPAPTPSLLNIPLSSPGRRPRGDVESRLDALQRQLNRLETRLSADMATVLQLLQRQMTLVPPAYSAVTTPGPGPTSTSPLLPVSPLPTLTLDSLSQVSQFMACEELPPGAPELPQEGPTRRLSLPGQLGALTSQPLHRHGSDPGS

On to `CC(C)(C)c1ccc(C2=NC(=Cc3ccc[nH]3)C(=O)O2)cc1` [F10, 4-((1H-pyrrol-2-yl)methylene)-2-(4-(tert-butyl)phenyl)oxazol-5 (4H)-one], for which, under “30 μM”, the “effect on hERG channel activity” value is given as “did not show any effect”.
Take `CC(C)(C)c1ccc(C2=NC(=Cc3cccs3)C(=O)O2)cc1` [F56, 2-(4-(tert-butyl)phenyl)-4-(thiophen-2-ylmethylene)oxazol-5(4H)-one]: the “effect on hERG channel activity” value (pretreated 10 minutes) is reported as “not affected”.
